# From PMC7920804 (Bioorganic & Medicinal Chemistry Letters, 2021)
# Target: T1, CYP1A2 (Homo sapiens, UniProt P05177)
# T1 sequence (P05177 1-516): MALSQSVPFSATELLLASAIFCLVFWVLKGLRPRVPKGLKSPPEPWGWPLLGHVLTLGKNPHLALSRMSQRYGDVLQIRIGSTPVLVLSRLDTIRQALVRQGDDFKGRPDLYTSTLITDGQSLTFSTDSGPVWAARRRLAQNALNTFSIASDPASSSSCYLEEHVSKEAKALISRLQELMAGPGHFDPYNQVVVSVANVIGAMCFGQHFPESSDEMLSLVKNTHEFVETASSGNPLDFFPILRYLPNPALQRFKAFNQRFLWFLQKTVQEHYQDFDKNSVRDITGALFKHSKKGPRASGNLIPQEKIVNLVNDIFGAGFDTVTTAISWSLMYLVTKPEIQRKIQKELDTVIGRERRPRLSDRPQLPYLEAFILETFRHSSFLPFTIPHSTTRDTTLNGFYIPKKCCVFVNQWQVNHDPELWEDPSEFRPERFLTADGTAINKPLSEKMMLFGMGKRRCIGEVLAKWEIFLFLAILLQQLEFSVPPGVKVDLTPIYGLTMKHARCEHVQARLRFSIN
# Experiment: CYP inhibition assay, 1A2
# Type: in vitro ADME
# Conditions: not given
row,SMILES,inhibition at 10 µM
1,"O=c1[nH]c(Nc2cc(Cl)cc(Cl)c2)nc2cccc(O)c12 [Compound 11e, 2-((3,5-dichlorophenyl)amino)-5-hydroxyquinazolin-4(3H)-one]",> 65%

# Target: CYP3A4 (Homo sapiens, UniProt P08684)
# Sequence (P08684 whole entry): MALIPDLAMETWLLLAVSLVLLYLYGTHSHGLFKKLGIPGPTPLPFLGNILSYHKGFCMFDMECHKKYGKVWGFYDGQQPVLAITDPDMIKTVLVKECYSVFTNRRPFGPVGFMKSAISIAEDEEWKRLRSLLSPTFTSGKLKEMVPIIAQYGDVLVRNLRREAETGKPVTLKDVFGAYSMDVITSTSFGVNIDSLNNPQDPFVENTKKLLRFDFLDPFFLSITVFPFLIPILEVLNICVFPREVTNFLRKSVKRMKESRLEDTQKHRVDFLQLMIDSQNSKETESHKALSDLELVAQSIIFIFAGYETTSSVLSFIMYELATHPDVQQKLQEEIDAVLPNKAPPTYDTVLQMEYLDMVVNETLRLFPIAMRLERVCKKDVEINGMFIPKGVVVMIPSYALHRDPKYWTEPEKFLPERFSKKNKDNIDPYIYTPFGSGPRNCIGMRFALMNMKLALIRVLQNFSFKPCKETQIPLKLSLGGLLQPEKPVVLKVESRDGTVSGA
# Experiment: CYP inhibition assay, 3A4
# Type: in vitro ADME
# Conditions: not given
row,SMILES,inhibition at 10 µM
1,"O=c1[nH]c(Nc2cc(Cl)cc(Cl)c2)nc2cccc(O)c12 [Compound 11e, 2-((3,5-dichlorophenyl)amino)-5-hydroxyquinazolin-4(3H)-one]",> 65%

# Test system: SARS-CoV-2
# Experiment: not given
# Conditions: not given
row,SMILES,SARS-CoV-2 IC50
1,O=c1[nH]c(Nc2ccccc2F)nc2cc(Cl)ccc12 [Compound 9a],no inhibitory effect
2,O=c1[nH]c(Nc2ccc(F)cc2)nc2cc(Cl)ccc12 [Compound 9c],no inhibitory effect
3,O=c1[nH]c(Nc2ccc(F)cc2F)nc2cc(Cl)ccc12 [Compound 9d],no activity
4,Nc1ccc2c(=O)[nH]c(Nc3cc(F)cc(F)c3)nc2c1 [Compound 10c],no inhibitory effects
5,COc1cccc2nc(Nc3cc(F)cc(F)c3)[nH]c(=O)c12 [Compound 10d],no inhibitory effects
6,O=c1[nH]c(Nc2cc(F)cc(F)c2)nc2cc(O)ccc12 [Compound 10g],no inhibitory effects
7,Cc1cc(C)c2nc(Nc3cc(F)cc(F)c3)[nH]c(=O)c2c1 [Compound 10h],no inhibitory effects
8,Nc1ccc2c(=O)[nH]c(Nc3cc(Cl)cc(Cl)c3)nc2c1 [Compound 11c],no inhibitory effects
9,COc1cccc2nc(Nc3cc(Cl)cc(Cl)c3)[nH]c(=O)c12 [Compound 11d],no inhibitory effects
10,O=c1[nH]c(Nc2cc(Cl)cc(Cl)c2)nc2cc(O)ccc12 [Compound 11g],no inhibitory effects
11,"Cc1cc(C)c2nc(Nc3cc(Cl)cc(Cl)c3)[nH]c(=O)c2c1 [Compound 11h, 2-((3,5-Dichlorophenyl)amino)-6,8-dimethylquinazolin-4(3H)-one]",no inhibitory effects
12,O=c1[nH]c(Nc2cc(Cl)cc(Cl)c2)nc2cc(N3CCOCC3)ccc12 [Compound 11k],no anti-SARS-CoV-2 activity

# Test system: not listed separately
# Experiment: in vivo
# Conditions: rat, po, 10 mg/kg
row,SMILES,Cmax
1,"O=c1[nH]c(Nc2cc(Cl)cc(Cl)c2)nc2cccc(O)c12 [Compound 11e, 2-((3,5-dichlorophenyl)amino)-5-hydroxyquinazolin-4(3H)-one]",60 ng/mL

# Test system: SARS-CoV-2
# Experiment: microbe, parasite or virus in culture
# Conditions: Severe acute respiratory syndrome coronavirus 2, Vero, read-out: SARS-CoV-2 IC50
row,SMILES,IC50
1,"O=c1[nH]c(Nc2cc(Cl)cc(Cl)c2)nc2cc(Cl)ccc12 [Compound 9g, 7-chloro-2-((3,5-dichlorophenyl)amino)quinazolin-4(3H)-one]",< 0.25 µM
2,COc1cccc(Nc2nc3cc(Cl)ccc3c(=O)[nH]2)c1 [Compound 9h],> 11 µM
3,O=c1[nH]c(NCC2CCCCC2)nc2cc(Cl)ccc12 [Compound 9n],> 14 µM
4,CC(C)Nc1nc2cc(Cl)ccc2c(=O)[nH]1 [Compound 9o],> 14 µM
5,CCCCNc1nc2cc(Cl)ccc2c(=O)[nH]1 [Compound 9p],> 14 µM
6,O=c1[nH]c(N2CCCCC2)nc2cc(Cl)ccc12 [Compound 9q],> 14 µM
7,"O=c1[nH]c(Nc2cc(Cl)cc(Cl)c2)nc2cccc(O)c12 [Compound 11e, 2-((3,5-dichlorophenyl)amino)-5-hydroxyquinazolin-4(3H)-one]",< 0.25 µM
